Data from US10004701B2, “Methods and compositions for treating infection” (UNIVERSITY OF ROCHESTER, priority 2012, dated 2018).
Counter-ions that a name gives are not always drawn. Like-named read-outs stand apart in the source and are kept apart here.

Key:
Assay in all cases: AK assay 384-well format, Prestwick library screening
[1] = system: A. baumannii strain 98-37-09; assay type: cell-based, Acinetobacter baumannii; settings: 50 μM final drug concentration; for fold induction at 50 µM: Acinetobacter baumannii, 983709, 3 h
E. cloacae = assay type: cell-based, Enterobacter cloacae; settings: 50 μM final drug concentration; for fold induction at 50 µM: Enterobacter cloacae, 3 h
[2] = system: S. aureus strain USA300-0114; assay type: cell-based, Staphylococcus aureus; settings: 50 μM final drug concentration; for fold induction at 50 µM: Staphylococcus aureus, USA300, 3 h
K. pneumoniae = assay type: cell-based, Klebsiella pneumoniae; settings: 50 μM final drug concentration; for fold induction at 50 µM: Klebsiella pneumoniae, 3 h
E. faecium = assay type: cell-based, Enterococcus faecium; settings: 50 μM final drug concentration; for fold induction at 50 µM: Enterococcus faecium, 3 h
E. coli = assay type: cell-based, Escherichia coli; settings: 50 μM final drug concentration; for fold induction at 50 µM: Escherichia coli, 3 h
P. aeruginosa = assay type: cell-based, Pseudomonas aeruginosa; settings: 50 μM final drug concentration; for fold induction at 50 µM: Pseudomonas aeruginosa, 3 h
[3] = planktonic A. baumannii, 384-well, cutoff for positive-scoring molecules 3-fold increase, read-out: AK-based Prestwick Library Screening Results: A. baumannii (increase in extracellular AK activity)
[4] = planktonic E. cloacae, 384-well, cutoff for positive-scoring molecules 3-fold increase, read-out: AK-based Prestwick Library Screening Results: E. cloacae (increase in extracellular AK activity)
[5] = planktonic S. aureus, 384-well, cutoff for positive-scoring molecules 3-fold increase, read-out: AK-based Prestwick Library Screening Results: S. aureus (increase in extracellular AK activity)
[6] = planktonic K. pneumoniae, 384-well, cutoff for positive-scoring molecules 3-fold increase, read-out: AK-based Prestwick Library Screening Results: K. pneumoniae (increase in extracellular AK activity)
[7] = planktonic E. faecium, 384-well, cutoff for positive-scoring molecules 3-fold increase, read-out: AK-based Prestwick Library Screening Results: E. faecium (increase in extracellular AK activity)
[8] = planktonic E. coli, 384-well, cutoff for positive-scoring molecules 3-fold increase, read-out: AK-based Prestwick Library Screening Results: E. coli (increase in extracellular AK activity)
[9] = planktonic P. aeruginosa, 384-well, cutoff for positive-scoring molecules 3-fold increase, read-out: AK-based Prestwick Library Screening Results: P. aeruginosa (increase in extracellular AK activity)
[10] = 384-well format, cutoff for positive-scoring molecules 3-fold increase, read-out: AK-based Prestwick Library Screening Results, A. baumannii (increase in extracellular AK activity)
[11] = 384-well format, cutoff for positive-scoring molecules 3-fold increase, read-out: AK-based Prestwick Library Screening Results, E. cloacae (increase in extracellular AK activity)
[12] = 384-well format, cutoff for positive-scoring molecules 3-fold increase, read-out: AK-based Prestwick Library Screening Results, S. aureus (increase in extracellular AK activity)
[13] = 384-well format, cutoff for positive-scoring molecules 3-fold increase, read-out: AK-based Prestwick Library Screening Results, K. pneumoniae (increase in extracellular AK activity)
[14] = 384-well format, cutoff for positive-scoring molecules 3-fold increase, read-out: AK-based Prestwick Library Screening Results, E. faecium (increase in extracellular AK activity)
[15] = 384-well format, cutoff for positive-scoring molecules 3-fold increase, read-out: AK-based Prestwick Library Screening Results, E. coli (increase in extracellular AK activity)
[16] = 384-well format, cutoff for positive-scoring molecules 3-fold increase, read-out: AK-based Prestwick Library Screening Results, P. aeruginosa (increase in extracellular AK activity)
[17] = planktonic, cutoff for positive-scoring molecules 3-fold increase

Cc1cc2c(cc1S(N)(=O)=O)S(=O)(=O)CCC2 [Meticrane]
fold induction at 50 µM ([1]; 384-well format, […], read-out: AK-based Prestwick Library Screening Results, A. baumannii (increase in extracellular AK activity)): 0.8 | fold induction at 50 µM (E. cloacae; 384-well format, […], read-out: AK-based Prestwick Library Screening Results, E. cloacae (increase in extracellular AK activity)): 0.7 | fold induction at 50 µM ([2]; 384-well format, […], read-out: AK-based Prestwick Library Screening Results, S. aureus (increase in extracellular AK activity)): 0.8 | fold induction at 50 µM (K. pneumoniae; 384-well format, […], read-out: AK-based Prestwick Library Screening Results, K. pneumoniae (increase in extracellular AK activity)): 0.5 | fold induction at 50 µM (E. faecium; 384-well format, […], read-out: AK-based Prestwick Library Screening Results, E. faecium (increase in extracellular AK activity)): 0.9 | fold induction at 50 µM (E. coli; 384-well format, […], read-out: AK-based Prestwick Library Screening Results, E. coli (increase in extracellular AK activity)): 0.6 | fold induction at 50 µM (P. aeruginosa; 384-well format, […], read-out: AK-based Prestwick Library Screening Results, P. aeruginosa (increase in extracellular AK activity)): 0.6

CN1CCCC(CC2c3ccccc3Sc3ccccc32)C1 (centres unmarked) [Metixene hydrochloride]
fold induction at 50 µM ([1]; planktonic A. baumannii, cutoff for positive-scoring molecules 3-fold increase, read-out: AK-based Prestwick Library Screening Results, A. baumannii (increase in extracellular AK activity)): 1 | fold induction at 50 µM (E. cloacae; planktonic E. cloacae, cutoff for positive-scoring molecules 3-fold increase, read-out: AK-based Prestwick Library Screening Results, E. cloacae (increase in extracellular AK activity)): 0.8 | fold induction at 50 µM ([2]; planktonic S. aureus, cutoff for positive-scoring molecules 3-fold increase, read-out: AK-based Prestwick Library Screening Results, S. aureus (increase in extracellular AK activity)): 0.7 | fold induction at 50 µM (K. pneumoniae; planktonic K. pneumoniae, cutoff for positive-scoring molecules 3-fold increase, read-out: AK-based Prestwick Library Screening Results, K. pneumoniae (increase in extracellular AK activity)): 0.8 | fold induction at 50 µM (E. faecium; planktonic E. faecium, cutoff for positive-scoring molecules 3-fold increase, read-out: AK-based Prestwick Library Screening Results, E. faecium (increase in extracellular AK activity)): 1 | fold induction at 50 µM (E. coli; planktonic E. coli, cutoff for positive-scoring molecules 3-fold increase, read-out: AK-based Prestwick Library Screening Results, E. coli (increase in extracellular AK activity)): 0.9 | fold induction at 50 µM (P. aeruginosa; planktonic P. aeruginosa, cutoff for positive-scoring molecules 3-fold increase, read-out: AK-based Prestwick Library Screening Results, P. aeruginosa (increase in extracellular AK activity)): 0.8

CCN(CC)CCNC(=O)c1cc(Cl)c(N)cc1OC [Metoclopramide monohydrochloride]
fold induction at 50 µM [1, 3]: 1.2 | fold induction at 50 µM (E. cloacae; [4]): 1.6 | fold induction at 50 µM [2, 5]: 0.9 | fold induction at 50 µM (K. pneumoniae; [6]): 0.9 | fold induction at 50 µM (E. faecium; [7]): 1.2 | fold induction at 50 µM (E. coli; [8]): 1.3 | fold induction at 50 µM (P. aeruginosa; [9]): 1.1

Cc1ccccc1N1C(=O)c2cc(S(N)(=O)=O)c(Cl)cc2NC1C (centres unmarked) [Metolazone]
fold induction at 50 µM [1, 10]: 0.8 | fold induction at 50 µM (E. cloacae; [11]): 1 | fold induction at 50 µM [2, 12]: 0.7 | fold induction at 50 µM (K. pneumoniae; [13]): 0.6 | fold induction at 50 µM (E. faecium; [14]): 0.8 | fold induction at 50 µM (E. coli; [15]): 0.8 | fold induction at 50 µM (P. aeruginosa; [16]): 0.7

CC(=O)Nc1c(I)c(C(=O)N[C@H]2C(O)O[C@H](CO)[C@@H](O)[C@@H]2O)c(I)c(N(C)C(C)=O)c1I (some centres unmarked) [Metrizamide]
fold induction at 50 µM ([1]; planktonic, cutoff for positive 3-fold increase, read-out: AK-based Prestwick Library Screening Results, A. baumannii (fold increase in extracellular AK activity)): 1.3 | fold induction at 50 µM (E. cloacae; planktonic, cutoff for positive 3-fold increase, read-out: AK-based Prestwick Library Screening Results, E. cloacae (fold increase in extracellular AK activity)): 1.3 | fold induction at 50 µM ([2]; planktonic, cutoff for positive 3-fold increase, read-out: AK-based Prestwick Library Screening Results, S. aureus (fold increase in extracellular AK activity)): 1.2 | fold induction at 50 µM (K. pneumoniae; planktonic, cutoff for positive 3-fold increase, read-out: AK-based Prestwick Library Screening Results, K. pneumoniae (fold increase in extracellular AK activity)): 1 | fold induction at 50 µM (E. faecium; planktonic, cutoff for positive 3-fold increase, read-out: AK-based Prestwick Library Screening Results, E. faecium (fold increase in extracellular AK activity)): 1 | fold induction at 50 µM (E. coli; planktonic, cutoff for positive 3-fold increase, read-out: AK-based Prestwick Library Screening Results, E. coli (fold increase in extracellular AK activity)): 1.2 | fold induction at 50 µM (P. aeruginosa; planktonic, cutoff for positive 3-fold increase, read-out: AK-based Prestwick Library Screening Results, P. aeruginosa (fold increase in extracellular AK activity)): 1.2

Cc1ncc([N+](=O)[O-])n1CCO [Metronidazole]
fold induction at 50 µM [1, 10]: 0.4 | fold induction at 50 µM (E. cloacae; [11]): 0.3 | fold induction at 50 µM [2, 12]: 0.4 | fold induction at 50 µM (K. pneumoniae; [13]): 0.4 | fold induction at 50 µM (E. faecium; [14]): 0.8 | fold induction at 50 µM (E. coli; [15]): 0.4 | fold induction at 50 µM (P. aeruginosa; [16]): 0.3

CC(C)(C(=O)c1cccnc1)c1cccnc1 [Metyrapone]
fold induction at 50 µM ([1]; planktonic, cutoff for positive-scoring molecules 3-fold increase, read-out: AK-based Prestwick Library Screening Results, A. baumannii (fold increase in extracellular AK activity)): 1 | fold induction at 50 µM (E. cloacae; planktonic, cutoff for positive-scoring molecules 3-fold increase, read-out: AK-based Prestwick Library Screening Results, E. cloacae (fold increase in extracellular AK activity)): 1.2 | fold induction at 50 µM ([2]; planktonic, cutoff for positive-scoring molecules 3-fold increase, read-out: AK-based Prestwick Library Screening Results, S. aureus (fold increase in extracellular AK activity)): 0.8 | fold induction at 50 µM (K. pneumoniae; planktonic, cutoff for positive-scoring molecules 3-fold increase, read-out: AK-based Prestwick Library Screening Results, K. pneumoniae (fold increase in extracellular AK activity)): 0.7 | fold induction at 50 µM (E. faecium; planktonic, cutoff for positive-scoring molecules 3-fold increase, read-out: AK-based Prestwick Library Screening Results, E. faecium (fold increase in extracellular AK activity)): 0.8 | fold induction at 50 µM (E. coli; planktonic, cutoff for positive-scoring molecules 3-fold increase, read-out: AK-based Prestwick Library Screening Results, E. coli (fold increase in extracellular AK activity)): 0.9 | fold induction at 50 µM (P. aeruginosa; planktonic, cutoff for positive-scoring molecules 3-fold increase, read-out: AK-based Prestwick Library Screening Results, P. aeruginosa (fold increase in extracellular AK activity)): 1

C[C@@]1(O)CCOC(=O)C1 [Mevalonic-D, L acid lactone]
AK-based Prestwick Library Screening Results, A. baumannii (fold increase in extracellular AK activity) [1, 17]: 0.9 | AK-based Prestwick Library Screening Results, E. cloacae (fold increase in extracellular AK activity) (E. cloacae; [17]): 0.9 | AK-based Prestwick Library Screening Results, S. aureus (fold increase in extracellular AK activity) [2, 17]: 0.9 | AK-based Prestwick Library Screening Results, K. pneumoniae (fold increase in extracellular AK activity) (K. pneumoniae; [17]): 0.8 | AK-based Prestwick Library Screening Results, E. faecium (fold increase in extracellular AK activity) (E. faecium; [17]): 1.0 | AK-based Prestwick Library Screening Results, E. coli (fold increase in extracellular AK activity) (E. coli; [17]): 1.0 | AK-based Prestwick Library Screening Results, P. aeruginosa (fold increase in extracellular AK activity) (P. aeruginosa; [17]): 0.8

Cc1cccc(C)c1OCC(C)N (centres unmarked) [Mexiletine hydrochloride]
fold induction at 50 µM [1, 10]: 0.5 | fold induction at 50 µM (E. cloacae; [11]): 0.7 | fold induction at 50 µM [2, 12]: 0.7 | fold induction at 50 µM (K. pneumoniae; [13]): 0.6 | fold induction at 50 µM (E. faecium; [14]): 0.9 | fold induction at 50 µM (E. coli; [15]): 0.6 | fold induction at 50 µM (P. aeruginosa; [16]): 0.7

CN1CCN2c3ccccc3Cc3ccccc3C2C1 (centres unmarked) [Mianserine hydrochloride]
fold induction at 50 µM [1, 10]: 0.8 | fold induction at 50 µM (E. cloacae; [11]): 0.7 | fold induction at 50 µM [2, 12]: 0.7 | fold induction at 50 µM (K. pneumoniae; [13]): 0.6 | fold induction at 50 µM (E. faecium; [14]): 0.9 | fold induction at 50 µM (E. coli; [15]): 0.7 | fold induction at 50 µM (P. aeruginosa; [16]): 0.8

Clc1ccc(COC(Cn2ccnc2)c2ccc(Cl)cc2Cl)c(Cl)c1 (centres unmarked) [Miconazole]
fold induction at 50 µM [1, 3]: 4.7 | fold induction at 50 µM (E. cloacae; [4]): 1.6 | fold induction at 50 µM [2, 5]: 2.2 | fold induction at 50 µM (K. pneumoniae; [6]): 1.4 | fold induction at 50 µM (E. faecium; [7]): 2.5 | fold induction at 50 µM (E. coli; [8]): 1.4 | fold induction at 50 µM (P. aeruginosa; [9]): 1.2
